Measurements: paper PMC3791449, “Mechanism of amyloid β−protein dimerization determined using single−molecule AFM force spectroscopy” (Scientific Reports, 2013)
“Also recorded” adds a separate entry of the source.

Experiments:
[1] = test system: misfolded Aβ dimers; experiment: Contour length analysis of interacting segments within Aβ dimers; format: binding, human; conditions: contour length profiles, Fig. 5
Excerpt: We used the contour length measurements to identify segments of the peptides involved in dimer formation. The measured contour length is comprised of the length of the flexible tethers used for peptide immobilization and the length of the segment of the peptide from the anchoring point to the rupture position. The latter, according to the schematic in Fig. 1, was obtained by subtracting the lengths of all linkers from the measured contour lengths.
Probing interactions of Aβ peptides within a dimer by SMFS provides a pattern of peptide interactions within the dimers. According to the immobilization procedure, the peptide is covalently bound at its N−terminal cysteine. The experimentally measured contour length consists of two major components, the lengths of the flexible tethers used for peptide immobilization and the length of the peptide segment between the N−terminus and the segment of the peptide involved in interpeptide interactions. Therefore, the position of the peak on the force−distance curve is defined by the peptide length between the N−terminus and the interacting segment. […] The closer the interacting segment is to the N−terminus, the shorter the contour length will be when measured by AFM. […] The contour length of PEG 3400 was estimated to be 22.0 ± 0.9 nm[28]. Lengths of both aminopropyl silatrane (APS) and MAS were ~ 2.5 nm[13]. Therefore, the total length of all linkers was 24.5 ± 0.9 nm. In addition, the distance between N−termini of two peptides was estimated to be 1.0 nm.
All cysteinyl−Aβ peptides were synthesized using 9−fluorenylmethoxycarbonyl (FMOC) chemistry and purified by reverse phase high performance liquid chromatography (RP−HPLC). The identity and purity (usually > 97%) of the peptides were confirmed by amino acid analysis followed by mass spectrometry and RP−HPLC. Functionalization of AFM tips and mica substrates were prepared according to previously published procedures. Briefly, 20 nM Aβ monomers were immobilized on mica functionalized with aminopropyl silatrane (APS) via PEG 3400 tethers and on AFM tips through maleimide silatrane (MAS). For DFS study, the tip retraction speeds ranged from 100 nm/s to 4000 nm/s. The dwell time was set at 0.3 s when retraction speed reached 1000 nm/s and above. Force curves with rupture event were subject to WLC analysis, as shown below. [drawing 1] Rupture force distributions were fitted with a probability density function: [drawing 2] Dynamic force spectra were fitted with Bell−Evans model[21]: [drawing 3] […] Positions of interacting segments of Aβ monomers within dimers were estimated by subtracting from the measured contour lengths the lengths of all linkers and the distance between N−termini of monomers (see Fig. 1a). […]

[2] = test system: misfolded Aβ dimers; experiment: Dynamic force spectroscopy (DFS) of misfolded Aβ dimers; format: binding, human; conditions: for koff (dissociation rate without applied force) / xβ (potential barrier location): Bell-Evans fit; for koff (dissociation rate without applied force): extrapolated to zero force; for barrier height (ΔG) of dimer dissociation: from mean koff of independent experiments, equation (4); for dimer lifetime (1/koff): zero applied force
Protocol: The cysteinyl−peptides were covalently immobilized on the tip and the surface via flexible tethers terminated with maleimide groups. […] Peptide aggregation was minimized by using a very low peptide concentration (20 nM) during the coupling reaction with the functionalized mica surface and the tips. Probing was performed by multiple approach−retraction cycles over various spots of the mica surface.
In the DFS approach, multiple force measurements were performed at different pulling rates and the data were grouped into several clusters according to the selected loading rates. […] After extrapolating the data to the zero pulling rate, the intercept and the slope of the linear plots (DFS spectrum) produced characteristics of the complexes, including their stability (off−rate constant koff) and the energy barrier position (xβ)[20][21].
The mean values were calculated from this dataset (Supplementary Table S1) and equation (4) (see Methods) was used to extract the barrier height (ΔG), along with xβ values, to generate the energy profile for the Aβ40 dissociation process.
All cysteinyl−Aβ peptides were synthesized using 9−fluorenylmethoxycarbonyl (FMOC) chemistry and purified by reverse phase high performance liquid chromatography (RP−HPLC). […] Functionalization of AFM tips and mica substrates were prepared according to previously published procedures. Briefly, 20 nM Aβ monomers were immobilized on mica functionalized with aminopropyl silatrane (APS) via PEG 3400 tethers and on AFM tips through maleimide silatrane (MAS). For DFS study, the tip retraction speeds ranged from 100 nm/s to 4000 nm/s. The dwell time was set at 0.3 s when retraction speed reached 1000 nm/s and above. Force curves with rupture event were subject to WLC analysis, as shown below. [drawing 1] Rupture force distributions were fitted with a probability density function: [drawing 2] Dynamic force spectra were fitted with Bell−Evans model[21]: [drawing 3] The energy profiles were reconstructed according to previous papers, using the equation below. [drawing 4] Positions of interacting segments of Aβ monomers within dimers were estimated by subtracting from the measured contour lengths the lengths of all linkers and the distance between N−termini of monomers (see Fig. 1a). The contour length of PEG was estimated with the following equation[28]: [drawing 5] Where Lc(F) is the contour length, Ns is the average number of monomers, Lplanar is the length of monomers with planar conformation, Lhelical is the length of monomers with helical conformation, ΔG(F) is the free energy difference at zero appling force. The Ns is 77 ± 10 for 3400 Da PEG. The Lplanar and Lhelical are 3.58 Å and 2.8 Å, respectively. The ΔG(F) is fixed at 3 kBT. […] All error bars represent SEM. Detailed methods can be found in Supplementary Information.
A 50 mM 1−(3−aminopropyl) silatrane (APS) stock solution was prepared by dissolving the APS powder in deionized (DI) water. The 1.67 mM stock solution of maleimide−polyethylene glycol−succinimidyl valerate (MAL−PEG−SVA; 3.4 kDa Laysan Bio Inc, Arab, AL) was prepared in DMSO (Sigma−Aldrich Inc.) and stored at −20°C. The 10 mM Tris (2−carboxyethyl) phosphine (TCEP) hydrochloride (Hampton Research Inc.) and the 2.94 mM solution of maleimide silatrane (MAS) were prepared in DI water and stored at −20°C. A 10 mM stock solution of β−mercaptoethanol was prepared in 10 mM sodium phosphate, pH 7.4 (“phosphate buffer”) and kept at 4°C. Unless otherwise specified, other reagents used in the experiments were of analytical grade from Sigma−Aldrich.

[3] = experiment #1, retraction 100-4000 nm/s
[4] = experiment #1, retraction 100-4000 nm/s, approach 400 nm/s, trigger force 100 pN, dwell 0.3 s at ≥1000 nm/s, N-terminal Cys tethered, 20 nM coupling
[5] = experiment #2, retraction 100-4000 nm/s
[6] = experiment #3, retraction 100-4000 nm/s
[7] = mean ± SEM of three experiments
[8] = mean ± SEM of three experiments, retraction 100-4000 nm/s
[9] = mean ± SEM of three experiments, DFS

## Aβ40: alloform of human amyloid β−protein; cysteinyl−Aβ peptide, Cys residue placed at the N−terminus
[1]
  predominant interpeptide interaction pattern in dimer: primary interactions that occur via the N−termini; also recorded: predominate contribution of N−terminal interactions
[2]; [3]
  koff (dissociation rate without applied force): 9.4 s⁻¹
[2]; [4]
  xβ (potential barrier location): 0.203 nm
[2]; experiment #2
  koff (dissociation rate without applied force): 4.7 s⁻¹
[2]; [5]
  xβ (potential barrier location): 0.257 nm
[2]; experiment #3
  koff (dissociation rate without applied force): 12.9 s⁻¹
[2]; [6]
  xβ (potential barrier location): 0.206 nm
[2]
  barrier height (ΔG) of dimer dissociation: 27.3 kBT
[2]; [7]
  koff (dissociation rate without applied force): 9.0 ± 2.4 s⁻¹
[2]; [8]
  xβ (potential barrier location): 0.222 ± 0.018 nm
[2]; [9]
  dimer lifetime (1/koff): 0.11 s

## Aβ42: alloform of human amyloid β−protein with two additional C−terminal residues; cysteinyl−peptide
[1]
  predominant interpeptide interaction pattern in dimer: interactions within the C−terminus
[2]; [4]
  xβ (potential barrier location): 0.299 nm
[2]; [5]
  xβ (potential barrier location): 0.260 nm
[2]; [6]
  xβ (potential barrier location): 0.262 nm
[2]; [8]
  xβ (potential barrier location): 0.274 ± 0.013 nm

## [VPV]Aβ40: Aβ40 mutant with VPV substitutions (Gly33Val−Val36Pro−Gly38Val); cysteinyl−peptide
[1]
  predominant interpeptide interaction pattern in dimer: increased interactions between the central and C−terminal segments
[2]; [3]
  koff (dissociation rate without applied force): 2.2 s⁻¹
[2]; [4]
  xβ (potential barrier location): 0.361 nm
[2]; experiment #2
  koff (dissociation rate without applied force): 1.7 s⁻¹
[2]; [5]
  xβ (potential barrier location): 0.293 nm
[2]; experiment #3
  koff (dissociation rate without applied force): 1.9 s⁻¹
[2]; [6]
  xβ (potential barrier location): 0.262 nm
[2]
  barrier height (ΔG) of dimer dissociation: 28.8 kBT
[2]; [7]
  koff (dissociation rate without applied force): 1.9 ± 0.1 s⁻¹
[2]; [8]
  xβ (potential barrier location): 0.305 ± 0.029 nm
[2]; [9]
  dimer lifetime (1/koff): 0.53 s

## [VPV]Aβ42: Aβ42 with VPV substitutions (Gly33Val−Val36Pro−Gly38Val); cysteinyl−peptide
[1]
  predominant interpeptide interaction pattern in dimer: interactions within the central segments
[2]; DFS, [VPV] mutant vs wild type
  lifetime increase of dimer vs WT counterpart: more than three times higher
[2]; [3]
  koff (dissociation rate without applied force): 1.1 s⁻¹
[2]; [4]
  xβ (potential barrier location): 0.451 nm
[2]; experiment #2
  koff (dissociation rate without applied force): 2.1 s⁻¹
[2]; [5]
  xβ (potential barrier location): 0.337 nm
[2]; experiment #3
  koff (dissociation rate without applied force): 1.5 s⁻¹
[2]; [6]
  xβ (potential barrier location): 0.387 nm
[2]
  barrier height (ΔG) of dimer dissociation: 29.0 kBT
[2]; [7]
  koff (dissociation rate without applied force): 1.6 ± 0.3 s⁻¹
[2]; [8]
  xβ (potential barrier location): 0.392 ± 0.034 nm
[2]; [9]
  dimer lifetime (1/koff): 0.63 ± 0.12 s
